How the values were obtained:
histamine = experiment: Bronchodilator test (BCA), histamine spasmogen, guinea pigs; format: in vivo, Hartley Guinea Pigs; set-up: key: Active; settings: 50 mg/kg
Text: The compounds of this invention may be determined to have antiallergy activity by a standard laboratory means employing the bronchodilator test (BCA) readily accepted as a standard for antiallergy activity, which is described in Siegmund, H. O., et al (J. Pharmacol. and Exptl., 90:254, 1949 and Herxheimer, H., J. Physiol., 117: 252-255, 1952). Thus, antiallergy activity was found for compounds of this invention by this BCA test using Hartley Guinea Pigs by the procedures as described below.
Naive (BCA) pigs are exposed to spasmogen for ten minutes by means of a De Vilbiss number 40 nebulizer positioned at the back of a closed, six unit plexiglas chamger (19×12.5×9"). Air flow is adjusted to give a pressure of 10 lbs/in; six animals per treatment are averaged, and the mean value for compound treated animals is compared to that for animals treated with vehicle. […]
The spasmogen may be acetylcholine chloride (0.3%), histamine (0.1%), methacholine chloride (Mecholyl) (0.1%) or serotonin creatinine sulfate. Each nebulizer dispenses 0.2 cc/minute.

[1] = system: pentobarbital-anesthetized dog; experiment: In vivo myocardial inotropic activity in anesthetized dog (CVAD); set-up: species or system dog (adult mongrel); settings: for Percent Change Heart Rate / Percent Change Myocardial Contractility / Percent Change Blood Pressure (second value) / Percent Change Blood Pressure (first value): intravenous; for Percent Change Blood Pressure (second value): value after the slash; for Percent Change Blood Pressure (first value): value before the slash
Method: This test procedure is described in the following paragraphs.
This screen consists of determining the effects of increasing intravenous doses of compound on mycardial contractility (dP/dt max of left ventricular blood pressure), heart rate, and aortic blood pressure of the pentobarbital-anesthetized dog.
Adult mongrel dogs of either sex are anesthetized with pentobarbital, 35 mg/kg, IV, and are subsequently maintained under anesthesia with a continuous infusion of pentobarbital, 3.5 mg/kg/hour. The trachea is intubated but the animals are permitted to breathe spontaneously. A cannula is inserted into the femoral vein for administrating test agents. A Millar catheter tip pressure transducer or a fluid filled catheter is inserted into the ascending aorta via the femoral artery for measuring aortic blood pressure. A Millar catheter tip pressure transducer is passed into the left ventricle via the left carotid artery for measuring left ventricular blood pressure. Needle electrodes are placed subcutaneously for recording a lead II electrocardiogram (ECG).
Left ventricular and aortic blood pressures are recorded on a strip chart recorder. Heart rate, using a biotachometer triggered from the R wave of the ECG, and the first derivative of left ventricular blood pressure (dP/dt), obtained with a differentiator amplifier coupled to the corresponding pressure amplifier, are also recorded. A period of at least 30 minutes is utilized to obtain control data prior to administration of test compound.
Depending on solubility, the compounds are dissolved in 0.9% saline solution or in dilute HCl or NaOH (0.1 to 1.0N) and are diluted to volume with normal saline. Ethanol or dimethylacetamide can be used as solvents if adequate dilutions can be made. Appropriate vehicle controls are administered when needed.
Each dose of the test compound is administered in a volume of […] over a period of one minute.

[2] = intravenously at about 0.01 to 0.31 mg/kg

Compound | Percent Change Heart Rate ([1]; 0.10 mg/kg) | Percent Change Myocardial Contractility ([1]; 0.10 mg/kg) | Percent Change Blood Pressure (second value) ([1]; 0.10 mg/kg) | Percent Change Blood Pressure (first value) ([1]; 0.10 mg/kg) | Percent Change Heart Rate ([1]; 1.00 mg/kg) | Percent Change Myocardial Contractility ([1]; 1.00 mg/kg) | Percent Change Blood Pressure (second value) ([1]; 1.00 mg/kg) | Percent Change Blood Pressure (first value) ([1]; 1.00 mg/kg) | Percent Change Heart Rate ([1]; 3.10 mg/kg) | Percent Change Myocardial Contractility ([1]; 3.10 mg/kg) | Percent Change Blood Pressure (second value) ([1]; 3.10 mg/kg) | Percent Change Blood Pressure (first value) ([1]; 3.10 mg/kg) | also measured
Cc1nn(C)c2c(=O)[nH]c(=O)[nH]c12 [Example 1, 1,3-Dimethylpyrazolo[4,3-d]pyrimidine-5,7-(4H, 6H)dione] | 1% | 5% | 1% | 1% | 5% | 41% | -2% | 0% | 15% | 90% | -4% | -2% | BCA Results, Ratings (histamine): A; Percent Change Heart Rate ([1]; 0.31 mg/kg): 1%; Percent Change Myocardial Contractility ([1]; 0.31 mg/kg): 13%; Percent Change Blood Pressure (second value) ([1]; 0.31 mg/kg): -1%; Percent Change Blood Pressure (first value) ([1]; 0.31 mg/kg): 1%; blood pressure (in words) [1, 2]: moderate reduction in blood pressure; cardiac contractility (in words) [1, 2]: dose related significant increases in cardiac contractility; heart rate (in words) [1, 2]: only low or minimal changes in heart rate
CCn1nc(C)c2[nH]c(=S)[nH]c(=O)c21 [Example 2, 1-Ethyl-1,4,5,6-tetrahydro-3-methyl-pyrazolo[4,3-d]pyrimidine-5-thione-7-on] | 3% | 5% | -1% | -1% | -1% | 13% | -4% | -2% | 5% | 45% | -9% | -6% | Percent Change Heart Rate ([1]; 0.30 mg/kg): 2%; Percent Change Myocardial Contractility ([1]; 0.30 mg/kg): 8%; Percent Change Blood Pressure (second value) ([1]; 0.30 mg/kg): -4%; Percent Change Blood Pressure (first value) ([1]; 0.30 mg/kg): -3%
